In PubChem BioAssay (NCI):
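Cultured in 96-well plates, cells were exposed to test compound for 48 hours across five concentrations. At the GI50, growth is halved. TGI: concentration producing complete growth inhibition.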

Key:
Assay in all cases: inhibition of tumour cell growth, NCI panel, 48 h
[1] = tested on: M14 melanoma
[2] = tested on: 786-0 renal
[3] = tested on: SK-OV-3 ovarian
[4] = tested on: MOLT-4 leukemia
[5] = tested on: SF-268 CNS
[6] = tested on: SK-MEL-2 melanoma
[7] = tested on: SNB-75 CNS
[8] = tested on: RXF 393 renal
[9] = tested on: NCI-H460 lung
[10] = tested on: COLO 205 colon
[11] = tested on: OVCAR-8 ovarian
[12] = tested on: SW-620 colon
[13] = tested on: MALME-3M melanoma
[14] = tested on: SN12C renal
[15] = tested on: UACC-62 melanoma
[16] = tested on: HS 578T breast
[17] = tested on: NCI/ADR-RES ovarian
[18] = tested on: SF-539 CNS
[19] = tested on: HT29 colon
[20] = tested on: RPMI-8226 leukemia
[21] = tested on: SNB-19 CNS
[22] = tested on: HCT-15 colon
[23] = tested on: SF-295 CNS
[24] = tested on: HL-60(TB) leukemia
[25] = tested on: U251 CNS
[26] = tested on: ACHN renal
[27] = tested on: CCRF-CEM leukemia
[28] = tested on: CAKI-1 renal
[29] = tested on: MCF7 breast
[30] = tested on: MDA-MB-231 breast
[31] = tested on: HOP-62 NSCLC
[32] = tested on: K-562 leukemia
[33] = tested on: HOP-92 NSCLC
[34] = tested on: NCI-H522 lung
[35] = tested on: OVCAR-3 ovarian
[36] = tested on: UO-31 renal
[37] = tested on: BT-549 breast
[38] = tested on: T-47D breast
[39] = tested on: MDA-MB-435
[40] = tested on: HCC-2998 colon
[41] = tested on: OVCAR-5 ovarian
[42] = tested on: NCI-H226 lung
[43] = tested on: PC-3 prostate
[44] = tested on: IGROV1 ovarian
[45] = tested on: NCI-H23 lung
[46] = tested on: SK-MEL-5 melanoma
[47] = tested on: OVCAR-4 ovarian
[48] = tested on: A549 NSCLC
[49] = tested on: UACC-257 melanoma
[50] = tested on: DU-145 prostate
[51] = tested on: LOX IMVI melanoma
[52] = tested on: SK-MEL-28 melanoma
[53] = tested on: TK-10 renal
[54] = tested on: HCT-116 colon
[55] = tested on: A498 renal
[56] = tested on: KM12 colon
[57] = tested on: EKVX NSCLC

SMILES: Cn1c([N+](=O)[O-])cnc1/C=C1\Oc2ccc(Br)cc2C1=O
- GI50 [1]: 445 nM
- TGI [1]: 2100 nM
- GI50 [2]: 557 nM
- TGI [2]: 2070 nM
- GI50 [3]: 1450 nM
- TGI [3]: 6080 nM
- GI50 [4]: 316 nM
- TGI [4]: 7300 nM
- GI50 [5]: 299 nM
- TGI [5]: 933 nM
- GI50 [6]: 445 nM
- TGI [6]: 1960 nM
- GI50 [7]: 1040 nM
- TGI [7]: 4450 nM
- GI50 [8]: 416 nM
- TGI [8]: 1940 nM
- GI50 [9]: 253 nM
- TGI [9]: 654 nM
- GI50 [10]: 925 nM
- TGI [10]: 3170 nM
- GI50 [11]: 266 nM
- GI50 [12]: 157 nM
- TGI [12]: 537 nM
- GI50 [13]: 683 nM
- TGI [13]: 2210 nM
- GI50 [14]: 421 nM
- TGI [14]: 4160 nM
- GI50 [15]: 993 nM
- TGI [15]: 2680 nM
- GI50 [16]: 890 nM
- TGI [16]: > 23400 nM
- GI50 [17]: 609 nM
- TGI [17]: 74400 nM
- GI50 [18]: 922 nM
- TGI [18]: 3280 nM
- GI50 [19]: 231 nM
- TGI [19]: 622 nM
- GI50 [20]: 352 nM
- TGI [20]: 2870 nM
- GI50 [21]: 1190 nM
- TGI [21]: 6170 nM
- GI50 [22]: 193 nM
- TGI [22]: 657 nM
- GI50 [23]: 1700 nM
- TGI [23]: 7850 nM
- GI50 [24]: 334 nM
- TGI [24]: 1570 nM
- GI50 [25]: 466 nM
- TGI [25]: 2540 nM
- GI50 [26]: 212 nM
- TGI [26]: 585 nM
- GI50 [27]: 200 nM
- TGI [27]: 706 nM
- GI50 [28]: 277 nM
- TGI [28]: 950 nM
- GI50 [29]: 330 nM
- TGI [29]: 7970 nM
- GI50 [30]: 374 nM
- TGI [30]: 4810 nM
- GI50 [31]: 1140 nM
- TGI [31]: 3950 nM
- GI50 [32]: 400 nM
- TGI [32]: 3280 nM
- GI50 [33]: 369 nM
- TGI [33]: 2580 nM
- GI50 [34]: 357 nM
- TGI [34]: 1040 nM
- GI50 [35]: 276 nM
- TGI [35]: 690 nM
- GI50 [36]: 240 nM
- TGI [36]: 765 nM
- GI50 [37]: 715 nM
- TGI [37]: 4760 nM
- GI50 [38]: 5410 nM
- TGI [38]: > 75900 nM
- GI50 [39]: 253 nM
- TGI [39]: 731 nM
- GI50 [40]: 995 nM
- TGI [40]: 3620 nM
- GI50 [41]: 1480 nM
- TGI [41]: 5640 nM
- GI50 [42]: 1380 nM
- TGI [42]: 4890 nM
- GI50 [43]: 471 nM
- GI50 [44]: 469 nM
- GI50 [45]: 432 nM
- TGI [45]: 2350 nM
- GI50 [46]: 213 nM
- TGI [46]: 586 nM
- GI50 [47]: 1580 nM
- TGI [47]: > 20200 nM
- GI50 [48]: 927 nM
- TGI [48]: 5200 nM
- GI50 [49]: 854 nM
- TGI [49]: 4070 nM
- GI50 [50]: 338 nM
- TGI [50]: 933 nM
- GI50 [51]: 209 nM
- TGI [51]: 543 nM
- GI50 [52]: 532 nM
- TGI [52]: 2870 nM
- GI50 [53]: 671 nM
- TGI [53]: 2640 nM
- GI50 [54]: 179 nM
- TGI [54]: 652 nM
- GI50 [55]: 1720 nM
- TGI [55]: 4670 nM
- GI50 [56]: 312 nM
- TGI [56]: 957 nM

SMILES: CCCOc1ccc2sc(NC(=O)c3cc([N+](=O)[O-])cc([N+](=O)[O-])c3)nc2c1
- TGI [1]: > 100000 nM
- TGI [2]: > 100000 nM
- TGI [3]: > 100000 nM
- TGI [4]: > 100000 nM
- TGI [5]: > 100000 nM
- TGI [6]: > 100000 nM
- TGI [7]: 83100 nM
- TGI [8]: > 100000 nM
- TGI [9]: > 100000 nM
- TGI [10]: > 100000 nM
- TGI [11]: > 100000 nM
- TGI [12]: > 100000 nM
- TGI [13]: 79300 nM
- TGI [14]: > 100000 nM
- TGI [15]: > 100000 nM
- TGI [16]: 39400 nM
- TGI [17]: 61500 nM
- TGI [18]: > 100000 nM
- TGI [19]: > 100000 nM
- TGI [20]: > 100000 nM
- TGI [21]: > 100000 nM
- TGI [22]: > 100000 nM
- TGI [23]: > 100000 nM
- TGI [24]: > 100000 nM
- TGI [25]: > 100000 nM
- TGI [26]: > 100000 nM
- TGI [27]: > 100000 nM
- TGI [28]: > 100000 nM
- TGI [29]: > 100000 nM
- TGI [30]: > 100000 nM
- TGI [31]: > 100000 nM
- TGI [32]: > 100000 nM
- TGI [33]: 49600 nM
- TGI [35]: 68300 nM
- TGI [36]: 57700 nM
- TGI [37]: > 100000 nM
- TGI [38]: > 100000 nM
- TGI [39]: > 100000 nM
- TGI [41]: > 100000 nM
- TGI [42]: > 100000 nM
- TGI [43]: > 100000 nM
- TGI [44]: 35700 nM
- TGI [45]: 82300 nM
- TGI [46]: 48800 nM
- TGI [47]: 58800 nM
- TGI [57]: > 100000 nM
- TGI [48]: > 100000 nM
- TGI [50]: > 100000 nM
- TGI [51]: 68300 nM
- TGI [52]: > 100000 nM
- TGI [53]: > 100000 nM
- TGI [54]: 89700 nM
- TGI [55]: 76900 nM
- TGI [56]: > 100000 nM
